Experimental data from ChEMBL document CHEMBL1201862, “PubChem BioAssay data set” (2004).
Where “and” joins values, the source holds several entries; their conditions need not be identical. Equal values may be shown once.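 Results reflect a 48-hour exposure of cells in 96-well plates to compound at five concentrations. The concentration for 50% growth inhibition is given as GI50.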 Calls of active or inactive are those of the source. Cut-off read from the data, not from the text of the source: active = GI50 up to about 1.1 µM and inactive = higher.

Legend:
Assay in all cases: DTP human tumour cell line panel, 48 h
RPMI-8226 = system: RPMI-8226
DU-145 = system: DU-145
NCI-H226 = system: NCI-H226
HOP-92 = system: HOP-92
NCI-H460 = system: NCI-H460
K562 = system: K562
SW-620 = system: SW-620
SN12C = system: SN12C
NCI-H522 = system: NCI-H522
LOX IMVI = system: LOX IMVI
HCT-116 = system: HCT-116
HT-29 = system: HT-29
A549 = system: A549
EKVX = system: EKVX
HL-60 = system: HL-60
MCF7 = system: MCF7
RXF 393 = system: RXF 393
OVCAR-4 = system: OVCAR-4
SF-539 = system: SF-539
SNB-75 = system: SNB-75

SMILES	GI50 (RPMI-8226)	GI50 (DU-145)	GI50 (NCI-H226)	GI50 (HOP-92)	GI50 (NCI-H460)	GI50 (K562)	GI50 (SW-620)	GI50 (SN12C)	GI50 (NCI-H522)	GI50 (LOX IMVI)	GI50 (HCT-116)	GI50 (HT-29)	GI50 (A549)	GI50 (EKVX)	GI50 (HL-60)	GI50 (MCF7)	GI50 (RXF 393)	GI50 (OVCAR-4)	GI50 (SF-539)	GI50 (SNB-75)
N#CCCN(CCC#N)c1ccc(/C=C2\N=C(c3ccccc3)N(c3ccc(Cl)cc3)C2=O)cc1	> 100 µM (inactive)	> 100 µM (inactive)	> 100 µM (inactive)	> 100 µM (inactive)	> 100 µM (inactive)	48 µM (inactive)	> 100 µM (inactive)	> 100 µM (inactive)	> 100 µM (inactive)	2.5 µM (inactive)	> 100 µM (inactive)	> 100 µM (inactive)	> 100 µM (inactive)	> 100 µM (inactive)	> 100 µM (inactive)	> 100 µM (inactive)	> 100 µM (inactive)	> 100 µM (inactive)	> 100 µM (inactive)	–
Cc1cc(=O)nc(Sc2ccc([N+](=O)[O-])cc2[N+](=O)[O-])[nH]1	3.9 µM (inactive)	17.2 µM (inactive)	19.7 µM (inactive)	6.64 µM (inactive)	23 µM (inactive)	3.4 µM (inactive)	3.72 µM (inactive)	10.8 µM (inactive)	7.23 µM (inactive)	2.81 µM (inactive)	10.2 µM (inactive)	3.55 µM (inactive)	18.5 µM (inactive)	32.7 µM (inactive)	3.33 µM (inactive)	14.4 µM (inactive)	12.9 µM (inactive)	> 39.4 µM (inactive)	–	1.53 µM (inactive)
CC(=O)O[C@H]1C(=O)[C@@]2(C)[C@H]([C@H](OC(=O)c3ccccc3)[C@]3(O)C[C@H](OC(=O)[C@H](O)[C@@H](NC(=O)c4ccccc4)c4ccccc4)C(C)=C1C3(C)C)[C@]1(OC(C)=O)CO[C@@H]1C[C@@H]2O [PACLITAXEL]	0.00267 µM (active)	0.0239 µM (active)	–	–	0.00296 µM (active)	–	0.00326 µM (active)	0.00481 µM (active)	0.00464 µM (active)	0.00355 µM (active)	0.00268 µM (active)	0.00273 µM (active)	–	–	0.00427 µM (active)	0.00292 µM (active)	0.00649 µM (active)	0.486 µM (active)	0.00373 µM (active)	–
CCOC(=O)Cc1cc(=O)[nH]c(-n2[nH]c(C)c(CCO)c2=O)n1	> 100 µM (inactive)	> 100 µM (inactive)	> 100 µM (inactive)	–	> 100 µM (inactive)	> 100 µM (inactive)	> 100 µM (inactive)	> 100 µM (inactive)	> 100 µM (inactive)	> 100 µM (inactive)	> 100 µM (inactive)	> 100 µM (inactive)	> 100 µM (inactive)	> 100 µM (inactive)	> 100 µM (inactive)	> 100 µM (inactive)	> 100 µM (inactive)	> 100 µM (inactive)	> 100 µM (inactive)	–
COc1ccc(C(O)c2ccc3c(c2)OCO3)cc1 (configuration not stated)	–	> 100 µM (inactive)	> 100 µM (inactive)	> 100 µM (inactive)	> 100 µM (inactive)	> 100 µM (inactive)	> 100 µM (inactive)	> 100 µM (inactive)	> 100 µM (inactive)	> 100 µM (inactive)	> 100 µM (inactive)	> 100 µM (inactive)	> 100 µM (inactive)	> 100 µM (inactive)	> 100 µM (inactive)	> 100 µM (inactive)	> 100 µM (inactive)	67.6 µM (inactive)	> 100 µM (inactive)	1.94 µM (inactive)
O=C(COc1ccc(OCC(=O)N/N=C/c2ccc(-c3ccc(Cl)cc3Cl)o2)c(Cl)c1)N/N=C/c1ccc(-c2ccc(Cl)cc2Cl)o1	12.6 µM (inactive)	> 100 µM (inactive)	45.7 µM (inactive)	–	> 100 µM (inactive)	15.3 µM (inactive)	> 100 µM (inactive)	> 100 µM (inactive)	81.8 µM (inactive)	57.9 µM (inactive)	> 100 µM (inactive)	> 100 µM (inactive)	85.5 µM (inactive)	0.142 µM (active)	16.4 µM (inactive)	41.8 µM (inactive)	33.6 µM (inactive)	> 100 µM (inactive)	–	–
O=C1C(Br)=C(C2=CC(=P(c3ccccc3)(c3ccccc3)c3ccccc3)C=C2)C(=O)C(Br)=C1C1=CC(=P(c2ccccc2)(c2ccccc2)c2ccccc2)C=C1	> 100 µM (inactive)	> 100 µM (inactive)	–	28.2 µM (inactive)	–	> 100 µM (inactive)	19.4 µM (inactive)	> 100 µM (inactive)	19.9 µM (inactive)	> 100 µM (inactive)	99.1 µM (inactive)	> 100 µM (inactive)	> 100 µM (inactive)	19.9 µM (inactive)	> 100 µM (inactive)	> 100 µM (inactive)	> 100 µM (inactive)	76 µM (inactive)	> 100 µM (inactive)	> 100 µM (inactive)
O=C(CCCN1CCC(Nc2ccc(F)cc2)(c2nnnn2C2CCCCC2)CC1)c1ccc(F)cc1	5.42 µM (inactive)	14.5 µM (inactive)	17.2 µM (inactive)	–	11.6 µM (inactive)	3.98 µM (inactive)	22.5 µM (inactive)	31.5 µM (inactive)	16.3 µM (inactive)	19.4 µM (inactive)	13.2 µM (inactive)	8.57 µM (inactive)	13.1 µM (inactive)	15.9 µM (inactive)	6.52 µM (inactive)	17.8 µM (inactive)	12.6 µM (inactive)	12.9 µM (inactive)	12.6 µM (inactive)	11.2 µM (inactive)
CCC1c2[nH]c3ccccc3c2C[C@H]2C(=O)NC(CCC(=O)OC(C)(C)C)C(=O)N12 (some centres not stated)	31.6 µM (inactive)	> 100 µM (inactive)	> 100 µM (inactive)	30.6 µM (inactive)	–	53.6 µM (inactive)	67.3 µM (inactive)	39.4 µM (inactive)	29.6 µM (inactive)	51.4 µM (inactive)	43.3 µM (inactive)	34 µM (inactive)	43 µM (inactive)	42.6 µM (inactive)	34 µM (inactive)	42.4 µM (inactive)	52.7 µM (inactive)	41.4 µM (inactive)	–	–
CC(C)=C1C(=O)C[C@]2(C)C/C=C(\C)CC/C=C(\C)CC[C@@H]12	11.9 µM (inactive)	16.7 µM (inactive)	8.69 µM (inactive)	9.53 µM (inactive)	–	6.65 µM (inactive)	9.31 µM (inactive)	9.42 µM (inactive)	6.97 µM (inactive)	–	8.32 µM (inactive)	9.08 µM (inactive)	14.1 µM (inactive)	11.2 µM (inactive)	–	11.5 µM (inactive)	7.29 µM (inactive)	15.3 µM (inactive)	8.57 µM (inactive)	9.66 µM (inactive)
CCN1CC2=C(NC(=S)NC2c2ccc(Cl)cc2)/C(=C/c2ccc(Cl)cc2)C1 (configuration not stated)	17.5 µM (inactive)	> 100 µM (inactive)	> 100 µM (inactive)	–	18.5 µM (inactive)	19.5 µM (inactive)	67.1 µM (inactive)	–	> 100 µM (inactive)	> 100 µM (inactive)	62.5 µM (inactive)	> 100 µM (inactive)	29.7 µM (inactive)	> 100 µM (inactive)	23.7 µM (inactive)	> 100 µM (inactive)	> 100 µM (inactive)	> 100 µM (inactive)	–	23.1 µM (inactive)
CCOC(=O)CSc1nc2ccccc2c(=O)n1N	> 100 µM (inactive)	40.9 µM (inactive)	> 100 µM (inactive)	> 100 µM (inactive)	83.4 µM (inactive)	> 100 µM (inactive)	> 100 µM (inactive)	63.1 µM (inactive)	> 100 µM (inactive)	> 100 µM (inactive)	> 100 µM (inactive)	68.4 µM (inactive)	83 µM (inactive)	> 100 µM (inactive)	–	> 100 µM (inactive)	> 100 µM (inactive)	> 100 µM (inactive)	> 100 µM (inactive)	> 100 µM (inactive)
OC1(c2ccccc2)C2CCN(CC2)C1CN1CCOCC1 (configuration not stated)	> 100 µM (inactive)	> 100 µM (inactive)	> 100 µM (inactive)	–	> 100 µM (inactive)	> 100 µM (inactive)	> 100 µM (inactive)	> 100 µM (inactive)	> 100 µM (inactive)	> 100 µM (inactive)	> 100 µM (inactive)	> 100 µM (inactive)	> 100 µM (inactive)	> 100 µM (inactive)	> 100 µM (inactive)	> 100 µM (inactive)	> 100 µM (inactive)	> 100 µM (inactive)	> 100 µM (inactive)	> 100 µM (inactive)
CC(c1ccccc1)n1c2ccccc2c2c(N)ncnc21 (configuration not stated)	42.4 µM (inactive)	18.6 µM (inactive)	–	13.6 µM (inactive)	24.3 µM (inactive)	24.7 µM (inactive)	22.6 µM (inactive)	–	13.6 µM (inactive)	17.5 µM (inactive)	21.5 µM (inactive)	17.3 µM (inactive)	21.6 µM (inactive)	10.8 µM (inactive)	23.9 µM (inactive)	20.7 µM (inactive)	18.3 µM (inactive)	13.6 µM (inactive)	17.1 µM (inactive)	1.4 µM (inactive)
COC1C(OC(C)=O)CC(=O)OC(C)C/C=C/C=C\C(O)C(C)CC(CC=O)C1OC1OC(C)C(OC2CC(C)(O)C(OC(=O)CC(C)C)C(C)O2)C(N(C)C)C1O (configuration not stated)	> 100 µM (inactive) and 58.2 µM (inactive)	97.9 µM (inactive)	> 100 µM (inactive)	> 100 µM (inactive)	> 100 µM (inactive)	29.5 µM (inactive) and 51.2 µM (inactive)	> 100 µM (inactive)	> 100 µM (inactive)	> 100 µM (inactive)	–	> 100 µM (inactive)	> 100 µM (inactive) and 67.9 µM (inactive)	> 100 µM (inactive)	–	–	> 100 µM (inactive) and 62.7 µM (inactive)	82 µM (inactive)	> 100 µM (inactive) and 68.5 µM (inactive)	> 100 µM (inactive)	> 100 µM (inactive)
